From patent EP1228058B1, “BENZOPYRANYL GUANIDINE DERIVATIVES, PROCESS FOR PREPARATION THEREOF, AND PHARMACEUTICAL COMPOSITIONS CONTAINING THEM” (Dongbu Hannong Chemical Co., Ltd., priority 1999, dated 2001)
Read-outs that look alike come from different tables or passages of the source.

What was measured:
[1] = tested on: angiogenesis induced by Angiotensin II in Sprague-Dawley rats; assay: Suppression of Angiotensin II induced angiogenesis in implanted sponge (99mTc-DTPA clearance); assay type: in vivo; conditions: AII (100nmol) + test drug, 7 days after injection
ischemic retinal cells = assay: Protection of ischemic retinal cells (raised intraocular pressure); assay type: in vivo, rats; conditions: vitreous injection 30 min before ischemia
Description: Test compounds were dissolved in DMSO to prepare stock solution (100 mM), which was diluted with physiological saline to the concentration of 100, 50 and 30 uM. Test compounds were administered by vitreous injection before 30 min of ischemia.
Adult rats were anaesthetized with ip (intra peritoneum) injection of chloral hydrate (400 mg/Kg), then the right eyes were treated with 1% tropicamide to dilate the pupils. The intraocular pressure (IOP) was raised to 160-180 mmHg, higher than normal blood pressure (140 mmHg), by cannulation of the anterior chamber connected to hydrostatic pressure device. Interruption of blood flow was confirmed ophthalmoscopically, the elevated IOP was maintained for 30 min. After 30 min of ischemia, both eyes were enucleated, and the retina was separated, of which cellular damage was observed. Number of cells in ganglion cell layer (250 x 25 um) and innernuclear layer (150 x 25 um) were counted, then calculated as a % of living cells compared to those of non-operated left eyes as a normal control.

HUVEC = assay: Inhibition of intracellular ROS induced by H2O2 (H2DCFDA) in HUVEC; assay type: cell-based, Human; conditions: Homo sapiens; for inhibition at 10 µM: Conc. 10^-5 M; for inhibition at 1 µM: Conc. 10^-6 M; for inhibition at 0.1 µM: Conc. 10^-7 M
Description: Measurement of intracellular ROS (Reactive Oxygen Species) was determined using H2DCFDA (2',7'-dichlorodihydrofluorescein diacetate, Molecular Probes, Eugene, OR, USA). H2DCFDA is a non-polar compound that readily diffused into cells, where it is hydrolyzed by intracellular esterase to polar derivative H2DCF (2',7'-dichlorodihydrofluorescein) which can not cross the cell membrane, and thereby trapped within the cell. H2DCF is low-fluorescent, but converted to high-fluorescent DCF (2',7'-dichlorofluorescein) by intracellular ROS. Therefore, the intracellular ROS formation can be determined from the amount of converted DCF. HUVEC (Human umbilical Vascular Endothelial Cells) or A7r5 (Rat thoracic aorta smooth muscle cells) were used. HUVEC were cultured in Kaighn's F12K medium supplemented with 10% heat-inactivated FBS, 0.1 mg/ml heparin sodium, 0.03-0.05 mg/ml ECGS (Endothelial cell growth supplement) and 1% antibiotics, and A7r5 were cultured in DMEM supplemented with 10% heat inactivated FBS and 1% antibiotics. To measure the intracellular ROS, HUVEC or A7r5 were preincubated for 30 min in the presence of test compounds (10^-7-10^-5 M). Thereafter, cells were stimulated with H2O2 (10^-6 and 10^-5 M for 20 min), and then incubated in the dark for 2 hr at 37 °C in 50 mM phosphate buffer (pH 7.4) containing 5 uM H2DCFDA. The quantity of DCF fluorescence (485 nm excitation, 530 nm emission) was measured using Fluorescence plate reader (FL600, Biotek Instruments).

[2] = read-out: Inhibition (%) H2O2 (10^-5M)
[3] = read-out: Inhibition (%) H2O2 (10^-6M)

| Structure (SMILES) | Clearance of ^99mTC (%) ([1]; Dose 0.1 mg/kg (p.o)) | Clearance of ^99mTC (%) ([1]; Dose 0.3 mg/kg (p.o)) | Clearance of ^99mTC (%) ([1]; Dose 1.0 mg/kg (p.o)) | Living cell (%) Ganglion Cell layer (ischemic retinal cells; 30 uM) [%] | Living cell (%) Innernuclear layer (ischemic retinal cells; 30 uM) [%] | Living cell (%) Ganglion Cell layer (ischemic retinal cells; 50 uM) [%] | Living cell (%) Innernuclear layer (ischemic retinal cells; 50 uM) [%] | Living cell (%) Ganglion Cell layer (ischemic retinal cells; 100 uM) [%] | Living cell (%) Innernuclear layer (ischemic retinal cells; 100 uM) [%] | inhibition at 10 µM (HUVEC; [2]) [%] | inhibition at 10 µM (HUVEC; [3]) [%] | inhibition at 1 µM (HUVEC; [2]) [%] | inhibition at 1 µM (HUVEC; [3]) [%] | inhibition at 0.1 µM (HUVEC; [2]) [%] | inhibition at 0.1 µM (HUVEC; [3]) [%] |
| --- | --- | --- | --- | --- | --- | --- | --- | --- | --- | --- | --- | --- | --- | --- | --- |
| COC(OC)[C@@]1(C)Oc2ccc([N+](=O)[O-])cc2[C@H](NC(=NC#N)NCc2ccccc2)[C@H]1O [Example 24, (2S, 3R, 4S)-N''-cyano-N-(6-nitro-3,4-dihydro-3-hydroxy-2-methyl-2-dimethoxymethyl-2H-benzopyran-4-yl)-N'-benzylguanidine] | 26.90 | 18.22 | 3.38 |  |  |  |  |  |  |  |  |  |  |  |  |
| COC(OC)[C@@]1(C)Oc2ccc(N)cc2[C@@H](NC(=NC#N)NCc2ccccc2)[C@@H]1O [Example 40, (2S, 3S, 4R)-N''-cyano-N-(6 - amino-3,4-dihydro-3-hydroxy-2-methyl-2-dimethoxymethyl-2H-benzopyran-4-yl)-N'-benzylguanidine] |  |  |  | 40.7 | 54.8 | 60.2 | 69.8 | 77.9 | 82.6 | 54.9 | 63.1 | 25.8 | 46.1 | 12 | 17.6 |
